Test results taken from publication PMC4237514, “Novel amino-β-lactam derivatives as potent cholesterol absorption inhibitors” (European Journal of Medicinal Chemistry, 2014).

Experiment: MTT cytotoxicity assay in hNPC1L1/MDCKII cells
Format: cell-based
Conditions: dog, MDCKII cells stably expressing human NPC1L1 (hNPC1L1/MDCKII), read-out: LC50, hNPC1L1/MDCKII
Protocol: Cytotoxicity of amino alcohols 5, 6 and their diastereoisomeric mixture 5/6 was analyzed using MTT cell proliferation assay and the LC50 values were determined in MDCKII wild type, hNPC1L1/MDCKII, and HepG2 cells (Table 2). MDCKII cells stably expressing human Niemann-Pick C1-like protein 1 (hNPC1L1/MDCKII) (Figure S1) are a pharmacologically validated system for investigating NPC1L1-mediated cholesterol uptake. The LC50 values were higher than 100 μM and considered nontoxic in all three cell lines. […] In addition, we tested the in vitro cytotoxicity of ezetimibe 1 and compounds 5, 6, and 5/6 (70:30) in combination with micelles and found all LC50 values to be above 100 μM (Figure S2).
Madin–Darby Canine Kidney II (MDCKII) cells, MDCKII cells stably expressing human NPC1L1 (hNPC1L1/MDCKII), and human HepG2 liver cells were maintained in DMEM (Dulbecco's Modified Eagle Medium, Invitrogen, USA) containing 100 units/mL penicillin and 100 μg/mL streptomycin supplemented with 10% FCS (Sigma–Aldrich, Germany). The cells were grown at 37 °C in a humidified 5% CO2 incubator. Stable transfection of MDCKII cells with human NPC1L1 protein was performed using Lipofectamine LTX (Invitrogen, USA) according to the manufacturer's protocol. Selection with 1 mg/mL G418 (Sigma–Aldrich, Germany) was started 2 days after transfection. The concentration of G418 was decreased to 500 μg/mL after 14 days. Stably transfected cells were maintained in DMEM containing 100 units/mL penicillin and 100 μg/mL streptomycin supplemented with 10% FCS and 500 μg/mL G418.
MDCKII, hNPC1L1/MDCKII, and HepG2 cells were seeded in 96-well microtiter plates on day 0 at densities of 3000 cells/well. On day 1, tested compounds (73 mM stock solution in DMSO) were added in five consecutive 10-fold dilutions (10^−8 to 10^−4 mol/L) and incubated for 72 h. Cytotoxicity of the compounds was assessed on day 4 by the MTT cell proliferation assay (Sigma–Aldrich, Germany) which detects mitochondrial dehydrogenase activity in viable cells. The results are expressed as LC50 and the values for each compound were calculated from dose–response curves using linear regression analysis. Each concentration was tested in quadruplicate in three independent experiments. Toxicity of the compounds in combination with micelles was also tested using the same method. MDCKII and hNPC1L1/MDCKII were seeded in 96-well microtiter plates (150 μL medium/well) at a density of 2 × 10^5 cells/mL medium 24 h before the experiment. Micelles were prepared according to the modified method reported by Field et al.. In brief, 0.25 mM oleic acid, 50 μM cholesterol, 10 μM compactin, 50 μM mevalonate, 5 mM Na-taurocholate (Sigma–Aldrich, Germany) in DMEM/10% FCS were mixed and sonicated. […] Thereafter, cytotoxicity was determined using the MTT assay.

| SMILES | CC50 at 72 h [µM] | CC50 at 96 h (72 h) [µM] |
| --- | --- | --- |
| O=C1[C@H](NCC(O)c2ccc(F)cc2)[C@@H](c2ccc(O)cc2)N1c1ccc(F)cc1 (mixture of isomers) [5/6 (70:30), (3R,4R)-3-[(2R/S)-2-(4-fluorophenyl)-2-hydroxyethylamino]-1-(4-fluorophenyl)-4-(4-hydroxyphenyl)azetidin-2-one] | > 100 |  |
| O=C1[C@H](CC[C@H](O)c2ccc(F)cc2)[C@@H](c2ccc(O)cc2)N1c1ccc(F)cc1 [Compound 1, ezetimibe, reference compound] |  | 62.3 |
| O=C1[C@H](NC[C@H](O)c2ccc(F)cc2)[C@@H](c2ccc(O)cc2)N1c1ccc(F)cc1 [Compound 5] | > 100 |  |
| O=C1[C@H](NC[C@@H](O)c2ccc(F)cc2)[C@@H](c2ccc(O)cc2)N1c1ccc(F)cc1 [Compound 6, (3R,4R)-3-[(2S)-2-(4-fluorophenyl)-2-hydroxyethylamino]-1-(4-fluorophenyl)-4-(4-hydroxyphenyl)azetidin-2-one] | > 100 |  |
